Assay results from PMC5651568, “Comparative characterization of all cellulosomal cellulases from Clostridium thermocellum reveals high diversity in endoglucanase product formation essential for complex activity” (Biotechnology for Biofuels, 2017).

What was measured:
Test in all cases: TLC product analysis
Type in all cases: biochemical
Details in all cases: 60 °C, MOPS buffer, 10 mM CaCl2
[1] = biological target: T1, Cel9K (Acetivibrio thermocellus, UniProt A3DCH1)
T1 construct: gene celK; signal peptide removed, dockerin kept, His-tag, codon-optimised synthetic gene, E. coli BL21
T1 sequence (A3DCH1 28-895): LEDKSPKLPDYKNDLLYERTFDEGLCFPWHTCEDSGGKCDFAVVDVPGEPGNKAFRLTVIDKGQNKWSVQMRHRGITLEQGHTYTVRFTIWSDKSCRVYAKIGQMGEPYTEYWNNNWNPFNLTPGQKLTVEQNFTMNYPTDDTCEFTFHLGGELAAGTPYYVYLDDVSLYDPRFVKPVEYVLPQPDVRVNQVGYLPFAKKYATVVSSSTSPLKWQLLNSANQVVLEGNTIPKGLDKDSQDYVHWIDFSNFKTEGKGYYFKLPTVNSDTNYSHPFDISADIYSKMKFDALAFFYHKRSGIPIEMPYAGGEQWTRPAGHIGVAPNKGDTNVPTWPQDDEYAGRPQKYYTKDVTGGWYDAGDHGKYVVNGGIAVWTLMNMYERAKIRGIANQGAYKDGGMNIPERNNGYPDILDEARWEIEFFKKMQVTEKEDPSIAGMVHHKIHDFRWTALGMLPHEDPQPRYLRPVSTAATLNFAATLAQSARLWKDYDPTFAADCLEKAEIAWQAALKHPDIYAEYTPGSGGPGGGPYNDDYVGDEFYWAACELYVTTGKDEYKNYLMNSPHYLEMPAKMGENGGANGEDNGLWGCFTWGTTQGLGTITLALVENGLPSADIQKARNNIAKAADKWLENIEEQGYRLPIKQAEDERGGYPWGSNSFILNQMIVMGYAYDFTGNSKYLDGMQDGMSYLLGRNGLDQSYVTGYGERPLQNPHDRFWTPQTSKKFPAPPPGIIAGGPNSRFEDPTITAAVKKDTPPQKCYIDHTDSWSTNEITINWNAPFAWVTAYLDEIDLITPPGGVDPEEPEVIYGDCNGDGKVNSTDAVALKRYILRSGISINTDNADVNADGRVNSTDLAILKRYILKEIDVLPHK

[2] = biological target: T2, Cel9-44J (Acetivibrio thermocellus, UniProt A3DD30)
T2 construct: gene Cthe_0624; signal peptide removed, GH9 and GH44 modules, dockerin kept, His-tag, codon-optimised synthetic gene, E. coli BL21
T2 sequence (A3DD30 28-1601): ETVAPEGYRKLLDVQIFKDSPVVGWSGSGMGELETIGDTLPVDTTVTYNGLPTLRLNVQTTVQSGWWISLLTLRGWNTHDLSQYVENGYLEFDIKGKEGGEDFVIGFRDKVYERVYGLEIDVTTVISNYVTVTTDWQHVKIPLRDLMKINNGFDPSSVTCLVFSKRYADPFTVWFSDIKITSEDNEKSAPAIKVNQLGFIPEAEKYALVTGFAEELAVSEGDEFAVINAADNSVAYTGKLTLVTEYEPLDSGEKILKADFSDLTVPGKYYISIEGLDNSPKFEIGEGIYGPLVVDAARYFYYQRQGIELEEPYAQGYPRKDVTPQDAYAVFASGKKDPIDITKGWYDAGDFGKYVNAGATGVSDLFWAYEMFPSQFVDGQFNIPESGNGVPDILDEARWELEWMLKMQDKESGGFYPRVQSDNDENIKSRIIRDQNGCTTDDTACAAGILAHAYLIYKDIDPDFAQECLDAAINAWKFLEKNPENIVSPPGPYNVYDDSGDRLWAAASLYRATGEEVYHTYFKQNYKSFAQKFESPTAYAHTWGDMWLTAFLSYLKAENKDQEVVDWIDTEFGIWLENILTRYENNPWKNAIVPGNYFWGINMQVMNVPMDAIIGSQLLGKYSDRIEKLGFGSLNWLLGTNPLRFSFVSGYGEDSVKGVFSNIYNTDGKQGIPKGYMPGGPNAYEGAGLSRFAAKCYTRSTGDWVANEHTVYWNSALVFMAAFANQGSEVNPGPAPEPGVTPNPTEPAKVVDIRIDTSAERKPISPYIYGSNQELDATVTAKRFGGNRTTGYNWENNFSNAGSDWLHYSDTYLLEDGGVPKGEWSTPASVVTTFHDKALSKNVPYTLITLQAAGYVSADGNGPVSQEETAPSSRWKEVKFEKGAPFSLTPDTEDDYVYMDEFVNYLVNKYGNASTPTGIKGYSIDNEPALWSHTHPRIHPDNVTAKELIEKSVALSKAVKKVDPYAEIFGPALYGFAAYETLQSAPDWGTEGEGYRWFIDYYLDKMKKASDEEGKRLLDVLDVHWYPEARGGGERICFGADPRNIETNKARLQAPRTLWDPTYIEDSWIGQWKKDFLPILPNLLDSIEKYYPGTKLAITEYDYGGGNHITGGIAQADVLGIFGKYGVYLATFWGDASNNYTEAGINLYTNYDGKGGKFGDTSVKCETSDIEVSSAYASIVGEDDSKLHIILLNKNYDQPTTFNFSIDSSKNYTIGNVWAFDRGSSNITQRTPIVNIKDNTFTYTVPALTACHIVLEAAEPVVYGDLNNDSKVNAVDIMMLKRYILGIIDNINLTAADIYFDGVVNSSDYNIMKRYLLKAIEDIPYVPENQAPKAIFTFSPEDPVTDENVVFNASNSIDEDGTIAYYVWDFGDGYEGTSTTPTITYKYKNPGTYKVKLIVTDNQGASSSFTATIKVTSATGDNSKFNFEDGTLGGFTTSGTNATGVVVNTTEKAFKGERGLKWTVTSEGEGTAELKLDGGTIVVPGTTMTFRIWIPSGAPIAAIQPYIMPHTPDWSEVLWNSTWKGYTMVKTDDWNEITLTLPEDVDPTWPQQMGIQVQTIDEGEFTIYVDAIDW

[3] = biological target: T3, Cel9D (Acetivibrio thermocellus, UniProt A3DDN1)
T3 construct: gene celD; signal peptide removed, Ig-like module and dockerin kept, His-tag, E. coli BL21
T3 sequence (A3DDN1 42-649): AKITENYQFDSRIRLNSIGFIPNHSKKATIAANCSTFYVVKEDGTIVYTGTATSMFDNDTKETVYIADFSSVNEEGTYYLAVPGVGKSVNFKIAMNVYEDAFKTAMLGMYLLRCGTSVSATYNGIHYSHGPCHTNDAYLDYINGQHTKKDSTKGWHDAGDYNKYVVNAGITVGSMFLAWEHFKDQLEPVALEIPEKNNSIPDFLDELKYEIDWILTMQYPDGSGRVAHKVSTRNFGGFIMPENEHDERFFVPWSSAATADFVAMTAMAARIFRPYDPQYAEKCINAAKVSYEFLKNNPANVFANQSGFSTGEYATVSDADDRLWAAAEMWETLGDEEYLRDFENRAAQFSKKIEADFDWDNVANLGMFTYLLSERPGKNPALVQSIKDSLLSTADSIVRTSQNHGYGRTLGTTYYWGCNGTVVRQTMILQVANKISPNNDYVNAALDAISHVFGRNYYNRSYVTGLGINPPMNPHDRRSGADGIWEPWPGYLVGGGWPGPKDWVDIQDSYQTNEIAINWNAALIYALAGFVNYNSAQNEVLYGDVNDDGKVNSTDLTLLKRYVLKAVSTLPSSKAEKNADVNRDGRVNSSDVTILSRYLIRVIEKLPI

[4] = biological target: T4, Cbh9A (Acetivibrio thermocellus, UniProt A3DCH2)
T4 construct: gene Cthe_0413; signal peptide removed, dockerin kept, His-tag, E. coli BL21
T4 sequence (A3DCH2 28-1224): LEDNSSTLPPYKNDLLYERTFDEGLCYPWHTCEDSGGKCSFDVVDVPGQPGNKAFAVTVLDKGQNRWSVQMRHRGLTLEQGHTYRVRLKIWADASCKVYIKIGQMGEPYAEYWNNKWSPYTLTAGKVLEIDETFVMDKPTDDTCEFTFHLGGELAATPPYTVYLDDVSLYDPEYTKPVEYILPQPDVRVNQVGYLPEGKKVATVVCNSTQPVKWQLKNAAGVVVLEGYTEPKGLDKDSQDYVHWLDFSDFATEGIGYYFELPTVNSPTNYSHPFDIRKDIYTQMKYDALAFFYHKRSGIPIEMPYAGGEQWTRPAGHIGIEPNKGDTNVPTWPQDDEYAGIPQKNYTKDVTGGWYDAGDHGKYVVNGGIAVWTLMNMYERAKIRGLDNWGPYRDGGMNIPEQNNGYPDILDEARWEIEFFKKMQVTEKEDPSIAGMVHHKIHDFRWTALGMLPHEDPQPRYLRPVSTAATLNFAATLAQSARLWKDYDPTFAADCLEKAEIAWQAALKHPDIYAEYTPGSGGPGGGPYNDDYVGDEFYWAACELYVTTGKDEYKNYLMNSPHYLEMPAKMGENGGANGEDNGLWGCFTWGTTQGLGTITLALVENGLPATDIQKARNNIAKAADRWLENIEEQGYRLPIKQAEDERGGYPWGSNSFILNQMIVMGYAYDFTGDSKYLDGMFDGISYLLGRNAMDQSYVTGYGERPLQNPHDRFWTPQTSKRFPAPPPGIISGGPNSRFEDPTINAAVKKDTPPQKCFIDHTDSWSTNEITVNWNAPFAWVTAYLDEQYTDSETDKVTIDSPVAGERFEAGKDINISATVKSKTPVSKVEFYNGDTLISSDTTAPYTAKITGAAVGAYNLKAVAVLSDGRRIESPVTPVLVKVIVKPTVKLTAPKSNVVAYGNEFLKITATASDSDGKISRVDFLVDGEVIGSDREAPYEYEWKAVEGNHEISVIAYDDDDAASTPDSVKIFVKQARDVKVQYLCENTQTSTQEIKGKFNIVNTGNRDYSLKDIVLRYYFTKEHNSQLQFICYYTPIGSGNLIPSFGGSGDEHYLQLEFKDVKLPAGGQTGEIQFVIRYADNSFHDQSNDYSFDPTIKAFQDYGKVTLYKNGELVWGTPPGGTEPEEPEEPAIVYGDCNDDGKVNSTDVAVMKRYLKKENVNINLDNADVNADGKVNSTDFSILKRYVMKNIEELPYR

[5] = biological target: T5, Cel5-26H (Acetivibrio thermocellus, UniProt P16218)
T5 construct: gene celH; signal peptide removed, GH5 and GH26 modules, dockerin kept, His-tag, E. coli BL21
T5 sequence (P16218 45-900): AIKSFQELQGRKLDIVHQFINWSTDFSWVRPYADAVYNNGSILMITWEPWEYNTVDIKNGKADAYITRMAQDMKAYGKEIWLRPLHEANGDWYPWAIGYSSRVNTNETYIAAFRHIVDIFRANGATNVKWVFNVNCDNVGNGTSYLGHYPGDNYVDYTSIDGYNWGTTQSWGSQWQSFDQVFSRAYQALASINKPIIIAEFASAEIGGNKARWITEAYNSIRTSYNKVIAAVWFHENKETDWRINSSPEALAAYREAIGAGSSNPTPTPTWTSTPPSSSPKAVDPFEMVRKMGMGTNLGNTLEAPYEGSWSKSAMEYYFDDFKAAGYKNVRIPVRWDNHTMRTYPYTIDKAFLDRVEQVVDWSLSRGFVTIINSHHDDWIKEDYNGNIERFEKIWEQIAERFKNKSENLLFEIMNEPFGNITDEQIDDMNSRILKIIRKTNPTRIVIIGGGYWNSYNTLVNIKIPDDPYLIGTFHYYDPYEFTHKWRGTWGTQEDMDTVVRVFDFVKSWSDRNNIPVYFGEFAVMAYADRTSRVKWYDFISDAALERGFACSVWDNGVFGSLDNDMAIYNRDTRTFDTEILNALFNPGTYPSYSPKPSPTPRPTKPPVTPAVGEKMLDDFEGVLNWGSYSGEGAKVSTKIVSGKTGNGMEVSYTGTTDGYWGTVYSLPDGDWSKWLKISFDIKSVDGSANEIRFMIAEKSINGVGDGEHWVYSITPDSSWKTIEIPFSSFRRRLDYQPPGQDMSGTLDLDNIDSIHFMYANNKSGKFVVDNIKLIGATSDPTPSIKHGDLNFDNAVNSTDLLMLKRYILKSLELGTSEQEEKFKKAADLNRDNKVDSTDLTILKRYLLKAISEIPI

[6] = biological target: T6, Cel9T (Acetivibrio thermocellus, UniProt A3DJ82)
T6 construct: gene Cthe_2812; signal peptide removed, dockerin kept, His-tag, E. coli BL21
T6 sequence (A3DJ82 36-611): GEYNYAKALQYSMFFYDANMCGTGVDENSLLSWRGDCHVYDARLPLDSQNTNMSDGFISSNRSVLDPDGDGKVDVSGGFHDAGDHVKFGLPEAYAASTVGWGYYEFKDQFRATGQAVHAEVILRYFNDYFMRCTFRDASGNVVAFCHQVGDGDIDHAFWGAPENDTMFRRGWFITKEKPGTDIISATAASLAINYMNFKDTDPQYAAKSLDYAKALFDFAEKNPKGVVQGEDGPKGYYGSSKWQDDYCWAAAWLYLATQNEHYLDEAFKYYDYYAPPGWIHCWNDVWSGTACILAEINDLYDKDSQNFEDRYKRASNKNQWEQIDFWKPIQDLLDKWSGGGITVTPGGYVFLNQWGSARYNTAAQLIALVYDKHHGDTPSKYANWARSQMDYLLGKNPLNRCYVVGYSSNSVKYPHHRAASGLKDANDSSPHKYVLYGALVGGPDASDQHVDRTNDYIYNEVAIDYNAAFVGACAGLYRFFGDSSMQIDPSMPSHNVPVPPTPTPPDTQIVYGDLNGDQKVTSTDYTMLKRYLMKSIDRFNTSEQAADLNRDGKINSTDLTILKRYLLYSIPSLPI

OC[C@H]1O[C@@H](O[C@H]2[C@H](O)[C@@H](O)[C@H](O[C@H]3[C@H](O)[C@@H](O)[C@H](O[C@H]4[C@H](O)[C@@H](O)[C@H](O[C@H]5[C@H](O)[C@@H](O)[C@H](O[C@H]6[C@H](O)[C@@H](O)C(O)O[C@@H]6CO)O[C@@H]5CO)O[C@@H]4CO)O[C@@H]3CO)O[C@@H]2CO)[C@H](O)[C@@H](O)[C@@H]1O (stereo partly drawn) [cellohexaose]
TLC product analysis [1]: released specifically cellobiose as the only product over time (Cel48S, Cel9K, and Cbh9A)
TLC product analysis [2]: characterized by their indiscriminate scission of cello-oligosaccharides
TLC product analysis [3]: confirmed by the hydrolysis products from cello-oligosaccharides as substrate
TLC product analysis [4]: released specifically cellobiose as the only product over time (Cel48S, Cel9K, and Cbh9A)
TLC product analysis [5]: characterized by their indiscriminate scission of cello-oligosaccharides
TLC product analysis [6]: characterized by their indiscriminate scission of cello-oligosaccharides
